Patent US12404489B2, “Establishing topographic organization in three-dimensional tissue culture” (MEMORIAL SLOAN-KETTERING CANCER CENTER, priority 2017, dated 2025)
“Also recorded” adds a separate entry of the source. Where two headings read alike, the source gives them in different places.

Assays:
[1] = system: SHH-organoids
[2] = system: SHH signaling activity in SHH-organoids; assay: Drug treatment of SHH-organoids, positional domains analysed at day 20; assay type: cell-based, human; details: day 20 SHH-organoids
Description: Day 20 organoids were fixed in 4% PFA overnight at 4° C. and washed three times with PBS the next day. […] Sections were blocked for 30 minutes in 10% FBS, 1% BSA, 0.3% triton in PBS, and incubated as floating section in primary antibody overnight. The next day, sections were washed with PBS and incubated as floating section in secondary antibody for 3 hours at room temperature. Day 6 organoids were fixed in 4% PFA for 2 hours at 4° C. and washed three times with PBS. After fixation, tissue was cryoprotected in 30% sucrose/PBS and sectioned at […] and mounted directly onto slides prior to immunofluorescence assays.
Organoid topography was quantified by first dividing each image into a grid of […] squares (day 20 analysis) or […] squares (day 6 analysis) that form a Cartesian coordinate grid. Each square is a discrete region of interest (ROI) that is associated with an X and Y coordinate. The origin of the grid was calculated for each image as the “center of mass” of the iSHH-organizer cells: CMx=S mixi/M and CMy=S miyi/M, where m=grey value intensity of iSHH cells for individual ROIs, x or y=coordinate, and M=total intensity for all ROIs, and the sum includes all x or y coordinates in the image. Next, ROI's that were positive for expression of a given protein (e.g. PAX6) were defined by thresholding staining intensity and determining ROIs with positive immunoreactivity. The linear distance from the origin to each ROI (sqrt((ROIx-CM^x)^2+(ROIy-CMy)^2)) was calculated. The present study analyzed every sixth section for each regional marker per organoid (typically 2-5 sections/organoid, depending on organoid size), thus sampling the organoids in 150 μm intervals using uniform random sampling.

[3] = system: SHH signaling in SHH organizer-containing organoids; assay: Example 6.2: SHH organizer-containing organoids treated with cholesterol inhibitors (FIGS. 15-16); assay type: cell-based, human; details: for SHH signaling (PAX6+ extent of organoid): FIG. 15; for long-range and short-range SHH signaling: FIG. 16
Description: To evaluate the effect of statins on fetal development, in certain embodiments SHH organizer-containing organoids are treated with statins.
FIG. 16 summarizes the effects of cholesterol inhibition on SHH organizer-containing organoids.

[4] = system: SHH signaling activity in SHH-organoids; assay: Drug treatment of SHH-organoids, NKX2.2 induction at day 6; assay type: cell-based, human; details: day 6 organoids
Description: Day 20 organoids were fixed in 4% PFA overnight at 4° C. and washed three times with PBS the next day. After fixation, tissue was cryoprotected in 30% sucrose/PBS and sectioned at […] on a cryostat (Leica 3050 S). Sections were blocked for 30 minutes in 10% FBS, 1% BSA, 0.3% triton in PBS, and incubated as floating section in primary antibody overnight. The next day, sections were washed with PBS and incubated as floating section in secondary antibody for 3 hours at room temperature. Day 6 organoids were fixed in 4% PFA for 2 hours at 4° C. and washed three times with PBS. After fixation, tissue was cryoprotected in 30% sucrose/PBS and sectioned at […] and mounted directly onto slides prior to immunofluorescence assays.
Organoid topography was quantified by first dividing each image into a grid of […] squares (day 20 analysis) or […] squares (day 6 analysis) that form a Cartesian coordinate grid. […] The origin of the grid was calculated for each image as the “center of mass” of the iSHH-organizer cells: CMx=S mixi/M and CMy=S miyi/M, where m=grey value intensity of iSHH cells for individual ROIs, x or y=coordinate, and M=total intensity for all ROIs, and the sum includes all x or y coordinates in the image. […] The linear distance from the origin to each ROI (sqrt((ROIx-CM^x)^2+(ROIy-CMy)^2)) was calculated. […]

[5] = system: SHH-organoids; assay: Drug treatment of SHH-organoids, organoid and organizer size at day 20
[6] = system: SW480 cells; details: cited from earlier work
[7] = doxycycline 400 ng/ml, lovastatin 5 μM, AY9944 1.25 μM
[8] = lovastatin 5 μM, AY9944 1.25 μM, cyclopamine 1 μM

For `Clc1ccccc1CNCC1CCC(CNCc2ccccc2Cl)CC1` (centres unmarked) [AY9944], which “overall organoid size / growth” value [1] is on record?
The value was “impaired growth”.

What about the “size of the organizer” value [1] of the same molecule?
Its value is “did not reduce the size of the organizer itself”.

What about the “SHH signaling activity (efficacy and range)” value ([2]; doxycycline 400 ng/ml, drug day 0-10, lovastatin 5 μM, AY9944 1.25 μM, cyclopamine 1 μM) of the same molecule?
The value was “reduced the efficacy and range of SHH signaling activity; also recorded: strong reduction the range of SHH-signaling activity”.

What about the NKX2.2 induction [2, 7] of the same molecule?
Its NKX2.2 induction is “largely blocked; also recorded: fail to induce NKX2.2”.

And the “NKX2.1 expression in or near the organizer” value (“NKX2.1 expression” below) [2, 8]?
The value was “retained diencephalic NKX2.1 expression; also recorded: only retain NKX2.1 expression in the immediate vicinity of the organizer; also recorded: retain NKX2.1 and OTX2 expression within the organizer”.

What about the “SHH signaling (PAX6+ extent of organoid)” value [3] of the same molecule?
Its value is “largely blocked SHH signaling”.

And the “long-range and short-range SHH signaling” value [3]?
Its value is “block long-range SHH signaling, but not short range signaling”.

What about the NKX2.2 induction ([4]; all concentrations tested) of the same molecule?
The NKX2.2 induction was “strongly inhibited NKX2.2 induction at all concentrations tested; also recorded: strongly inhibits induction of NKX2.2”.

With `CC[C@H](C)C(=O)O[C@H]1C[C@@H](C)C=C2C=C[C@H](C)[C@H](CC[C@@H]3C[C@@H](O)CC(=O)O3)[C@H]21` [Lovastatin] as the molecule, how does the GSH2 expression domain ([2]; doxycycline 400 ng/ml, lovastatin 5 μM) read?
The GSH2 expression domain was “concomitant increase in GSH2 expression; also recorded: increase in the relative area of the GSH2 expression domain”.

And the NKX2.2 induction [2, 7]?
Its NKX2.2 induction is “partial block in NKX2.2 induction; also recorded: moderate reduction in NKX2.2 induction”.

What about the “NKX2.1 expression” value [2, 8] of the same molecule?
The value was “retained diencephalic NKX2.1 expression; also recorded: retain NKX2.1 and OTX2 expression within the organizer”.

What about the “size of the organizer” value [5] of the same molecule?
The value was “did not reduce the size of the organizer itself”.

What about the “overall organoid size / growth” value ([5]; drug day 0-10) of the same molecule?
The value was “impaired growth”.

What about the “distance at which NKX2.2 is induced from the organizer” value ([4]; lovastatin 2, 5, 20 μM) of the same molecule?
Its value is “reduced the distance at which NKX2.2 is induced from the organizer in a dose-dependent manner; also recorded: dose-dependent reduction”.

With `Oc1nc(-c2ccc(C(F)(F)F)cc2)nc2c1CSCC2` [XAV939] as the molecule, how does the “degradation of β-catenin” value [6] read?
Its value is “promotes the degradation of β-catenin”.

What about the “protein levels of the axin-GSK3β complex” value [6] of the same molecule?
The value was “increases the protein levels of the axin-GSK3β complex”.

With `CC1=C2C[C@H]3[C@@H](CC=C4C[C@@H](O)CC[C@@]43C)[C@@H]2CC[C@]12O[C@@H]1C[C@H](C)CN[C@H]1[C@H]2C` [cyclopamine] as the molecule, how does the PAX6 expression ([2]; doxycycline 400 ng/ml, cyclopamine 1 μM) read?
The PAX6 expression was “nearly uniform for PAX6 expression; also recorded: largely express PAX6”.

And the “NKX2.1 expression” value [2, 8]?
The value was “not”.

What about the “SHH signaling (PAX6+ extent of organoid)” value [3] of the same molecule?
The value was “no SHH signaling”.

And the “long-range and short-range SHH signaling” value [3]?
The value was “block all SHH signaling”.
